{"source": "ChEMBL document CHEMBL4819104", "about": "“Discovery of 2-amino-3-amido-5-aryl-pyridines as highly potent, orally bioavailable, and efficacious PERK kinase inhibitors” (Bioorg Med Chem Lett, 2021)", "key": {"[1]": {"target": "Proto-oncogene tyrosine-protein kinase Src (Homo sapiens) (UniProt P12931)", "sequence (P12931 2-536 limits assumed)": "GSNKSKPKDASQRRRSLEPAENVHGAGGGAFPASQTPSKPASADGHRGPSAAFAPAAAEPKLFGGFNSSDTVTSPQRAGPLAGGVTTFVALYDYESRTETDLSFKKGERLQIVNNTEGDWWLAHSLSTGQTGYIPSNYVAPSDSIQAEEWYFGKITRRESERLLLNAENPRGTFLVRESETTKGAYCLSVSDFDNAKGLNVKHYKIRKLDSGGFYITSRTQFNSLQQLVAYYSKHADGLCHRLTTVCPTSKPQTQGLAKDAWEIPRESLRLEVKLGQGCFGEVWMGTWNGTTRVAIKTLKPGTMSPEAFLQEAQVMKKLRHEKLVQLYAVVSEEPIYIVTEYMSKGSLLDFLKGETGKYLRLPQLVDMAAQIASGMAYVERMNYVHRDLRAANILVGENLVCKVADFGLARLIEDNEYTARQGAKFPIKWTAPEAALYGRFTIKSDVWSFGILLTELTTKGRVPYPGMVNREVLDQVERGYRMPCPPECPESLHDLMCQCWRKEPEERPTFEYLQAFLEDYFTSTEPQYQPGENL", "assay": "Inhibition of wild-type human partial length SRC (L240 to L536 residues) expressed in bacterial expression system assessed as residual activity at 10 uM by Kinomescan method relative to control"}, "[2]": {"target": "Platelet-derived growth factor receptor beta (Homo sapiens) (UniProt P09619)", "sequence (P09619 whole entry, the tested form may be a part)": "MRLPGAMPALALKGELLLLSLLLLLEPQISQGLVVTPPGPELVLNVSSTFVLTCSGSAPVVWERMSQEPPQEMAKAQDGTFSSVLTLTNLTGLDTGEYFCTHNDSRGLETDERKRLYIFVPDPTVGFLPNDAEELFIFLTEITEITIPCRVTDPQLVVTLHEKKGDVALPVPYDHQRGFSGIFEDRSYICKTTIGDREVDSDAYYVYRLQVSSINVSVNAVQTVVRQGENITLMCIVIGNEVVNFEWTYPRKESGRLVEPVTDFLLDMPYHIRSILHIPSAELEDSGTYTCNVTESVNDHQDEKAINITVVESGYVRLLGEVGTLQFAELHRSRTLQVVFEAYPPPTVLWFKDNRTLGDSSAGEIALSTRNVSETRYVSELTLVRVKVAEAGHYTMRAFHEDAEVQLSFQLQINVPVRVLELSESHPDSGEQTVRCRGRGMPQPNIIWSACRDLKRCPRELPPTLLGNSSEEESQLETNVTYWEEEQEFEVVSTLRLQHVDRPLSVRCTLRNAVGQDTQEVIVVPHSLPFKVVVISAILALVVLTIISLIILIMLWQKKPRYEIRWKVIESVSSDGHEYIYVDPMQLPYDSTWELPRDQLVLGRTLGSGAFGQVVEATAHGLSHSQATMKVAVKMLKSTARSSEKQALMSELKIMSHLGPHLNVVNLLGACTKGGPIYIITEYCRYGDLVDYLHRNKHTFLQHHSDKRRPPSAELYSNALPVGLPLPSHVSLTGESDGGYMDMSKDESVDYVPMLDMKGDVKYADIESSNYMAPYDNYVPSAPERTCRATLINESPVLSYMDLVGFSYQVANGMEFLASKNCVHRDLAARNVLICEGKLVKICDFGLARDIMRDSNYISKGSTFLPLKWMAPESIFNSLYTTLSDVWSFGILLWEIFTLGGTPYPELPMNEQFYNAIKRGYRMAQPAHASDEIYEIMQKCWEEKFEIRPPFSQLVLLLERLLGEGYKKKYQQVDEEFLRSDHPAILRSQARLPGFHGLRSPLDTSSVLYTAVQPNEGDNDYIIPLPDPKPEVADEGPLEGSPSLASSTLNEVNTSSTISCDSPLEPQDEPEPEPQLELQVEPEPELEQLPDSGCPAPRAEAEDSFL", "assay": "Inhibition of wild-type human partial length PDGFRbeta (V582 to Y1009 residues) expressed in bacterial expression system assessed as residual activity at 10 uM by Kinomescan method relative to control"}, "[3]": {"assay": "Half life in rat hepatocytes", "format": "ADME, cell-based, Hepatocyte"}, "[4]": {"assay": "Plasma protein binding in human", "format": "ADME, cell-free", "conditions": "read-out: PPB (converted)"}, "[5]": {"assay": "Efflux ratio of apparent permeability in human Caco-2 cells", "format": "ADME, cell-based"}, "[6]": {"assay": "Cmax in mouse at 10 mg/kg, po", "format": "ADME, organism-based", "design": "route oral, dose 10 mg/kg", "conditions": "in vivo"}, "[7]": {"assay": "Half life in dog hepatocytes", "format": "ADME, cell-based, Canis lupus familiaris, Hepatocyte"}, "[8]": {"assay": "Oral bioavailability in mouse at 10 mg/kg", "format": "ADME, organism-based", "conditions": "in vivo"}, "[9]": {"assay": "Half life in mouse at 10 mg/kg, po", "format": "ADME, organism-based", "conditions": "in vivo"}, "[10]": {"target": "BDNF/NT-3 growth factors receptor (Homo sapiens) (UniProt Q16620)", "sequence (Q16620 32-822 limits assumed)": "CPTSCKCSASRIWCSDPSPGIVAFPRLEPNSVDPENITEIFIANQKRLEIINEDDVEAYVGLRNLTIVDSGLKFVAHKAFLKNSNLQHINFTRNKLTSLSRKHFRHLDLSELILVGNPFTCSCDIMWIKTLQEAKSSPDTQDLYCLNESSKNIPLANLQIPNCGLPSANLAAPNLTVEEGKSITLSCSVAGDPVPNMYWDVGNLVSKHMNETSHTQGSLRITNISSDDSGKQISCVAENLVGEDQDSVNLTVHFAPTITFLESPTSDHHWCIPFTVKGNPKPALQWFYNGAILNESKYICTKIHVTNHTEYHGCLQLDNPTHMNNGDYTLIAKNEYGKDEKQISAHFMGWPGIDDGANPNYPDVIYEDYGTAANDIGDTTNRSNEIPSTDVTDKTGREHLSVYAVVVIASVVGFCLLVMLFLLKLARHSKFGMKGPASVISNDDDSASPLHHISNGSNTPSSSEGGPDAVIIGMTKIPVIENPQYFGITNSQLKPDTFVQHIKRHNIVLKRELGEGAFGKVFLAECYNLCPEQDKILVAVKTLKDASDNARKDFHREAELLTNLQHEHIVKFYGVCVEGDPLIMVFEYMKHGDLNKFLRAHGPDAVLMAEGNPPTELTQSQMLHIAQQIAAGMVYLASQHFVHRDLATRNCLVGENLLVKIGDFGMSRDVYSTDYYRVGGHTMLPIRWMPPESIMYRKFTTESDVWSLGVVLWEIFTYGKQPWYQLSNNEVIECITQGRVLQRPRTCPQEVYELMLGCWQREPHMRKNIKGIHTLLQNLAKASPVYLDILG", "assay": "Inhibition of wild-type human partial length TRKB (Q547 to G838 residues) expressed in mammalian expression system assessed as residual activity at 10 uM by Kinomescan method relative to control"}, "[11]": {"target": "Macrophage colony-stimulating factor 1 receptor (Homo sapiens) (UniProt P07333)", "assay": "Inhibition of wild-type human partial length CSF1R (I564 to S939 residues) expressed in bacterial expression system assessed as residual activity at 10 uM by Kinomescan method relative to control"}, "[12]": {"tested_on": "Tyrosine-protein kinase ABL1 (Homo sapiens), P00519 [F317L]", "sequence (P00519 whole entry F317L, the tested form may be a part)": "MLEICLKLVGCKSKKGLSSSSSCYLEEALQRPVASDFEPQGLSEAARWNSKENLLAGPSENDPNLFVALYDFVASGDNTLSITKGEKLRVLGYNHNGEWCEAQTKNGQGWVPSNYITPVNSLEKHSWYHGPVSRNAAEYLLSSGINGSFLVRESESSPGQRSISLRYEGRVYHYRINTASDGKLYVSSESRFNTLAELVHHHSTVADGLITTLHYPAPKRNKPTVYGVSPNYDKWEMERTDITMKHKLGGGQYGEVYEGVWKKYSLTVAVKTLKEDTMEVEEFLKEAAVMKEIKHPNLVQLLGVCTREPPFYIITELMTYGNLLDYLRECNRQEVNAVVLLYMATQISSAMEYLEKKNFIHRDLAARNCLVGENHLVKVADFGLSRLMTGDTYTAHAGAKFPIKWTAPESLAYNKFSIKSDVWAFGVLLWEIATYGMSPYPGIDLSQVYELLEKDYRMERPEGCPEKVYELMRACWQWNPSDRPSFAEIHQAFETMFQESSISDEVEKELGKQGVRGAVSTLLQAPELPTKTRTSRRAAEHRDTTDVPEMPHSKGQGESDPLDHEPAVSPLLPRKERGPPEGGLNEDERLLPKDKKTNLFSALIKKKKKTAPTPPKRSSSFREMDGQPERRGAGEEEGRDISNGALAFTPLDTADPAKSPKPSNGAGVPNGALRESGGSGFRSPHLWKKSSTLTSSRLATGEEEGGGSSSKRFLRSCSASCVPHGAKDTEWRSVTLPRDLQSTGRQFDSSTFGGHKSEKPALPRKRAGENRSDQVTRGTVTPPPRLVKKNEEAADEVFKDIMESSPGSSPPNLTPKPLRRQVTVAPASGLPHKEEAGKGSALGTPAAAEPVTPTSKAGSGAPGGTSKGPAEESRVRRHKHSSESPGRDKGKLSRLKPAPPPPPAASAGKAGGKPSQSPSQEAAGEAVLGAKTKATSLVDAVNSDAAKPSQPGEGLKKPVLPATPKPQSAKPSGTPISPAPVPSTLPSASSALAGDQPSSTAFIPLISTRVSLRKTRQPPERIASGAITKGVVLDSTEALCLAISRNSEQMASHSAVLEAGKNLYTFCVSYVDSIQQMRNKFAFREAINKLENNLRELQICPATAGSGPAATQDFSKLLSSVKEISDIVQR", "assay": "Inhibition of human non-phosphorylated ABL1 F317L mutant (S229 to K512 residues) expressed in mammalian expression system assessed as residual activity at 10 uM by Kinomescan method relative to control"}, "[13]": {"assay": "Half life in mouse hepatocytes", "format": "ADME, cell-based, Hepatocyte"}, "[14]": {"target": "Tyrosine-protein kinase receptor UFO (Homo sapiens) (UniProt P30530)", "sequence (P30530 whole entry, the tested form may be a part)": "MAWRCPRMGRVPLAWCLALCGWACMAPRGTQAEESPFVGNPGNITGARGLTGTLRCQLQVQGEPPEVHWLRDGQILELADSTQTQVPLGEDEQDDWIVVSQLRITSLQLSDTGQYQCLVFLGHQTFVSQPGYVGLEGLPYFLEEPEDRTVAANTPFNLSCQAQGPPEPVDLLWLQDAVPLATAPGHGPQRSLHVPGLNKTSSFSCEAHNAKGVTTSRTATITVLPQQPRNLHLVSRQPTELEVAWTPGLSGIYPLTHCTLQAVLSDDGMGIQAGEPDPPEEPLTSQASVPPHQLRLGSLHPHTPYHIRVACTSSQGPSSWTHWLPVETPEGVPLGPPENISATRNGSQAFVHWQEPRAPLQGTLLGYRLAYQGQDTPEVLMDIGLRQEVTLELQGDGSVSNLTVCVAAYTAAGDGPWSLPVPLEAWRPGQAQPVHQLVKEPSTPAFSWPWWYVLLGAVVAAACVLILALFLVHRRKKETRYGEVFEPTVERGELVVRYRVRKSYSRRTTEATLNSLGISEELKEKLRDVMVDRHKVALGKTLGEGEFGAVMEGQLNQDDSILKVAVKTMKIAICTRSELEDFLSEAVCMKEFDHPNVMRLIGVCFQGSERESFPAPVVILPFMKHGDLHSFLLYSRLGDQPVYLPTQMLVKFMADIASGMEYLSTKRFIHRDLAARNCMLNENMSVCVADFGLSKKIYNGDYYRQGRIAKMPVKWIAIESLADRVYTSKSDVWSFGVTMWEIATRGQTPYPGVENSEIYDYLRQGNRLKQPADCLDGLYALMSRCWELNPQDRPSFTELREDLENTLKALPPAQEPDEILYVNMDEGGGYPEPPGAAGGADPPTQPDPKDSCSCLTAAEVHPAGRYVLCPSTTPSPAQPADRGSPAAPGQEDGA", "assay": "Inhibition of wild-type human partial length AXL (R497 to Y821 residues) expressed in bacterial expression system assessed as residual activity at 10 uM by Kinomescan method relative to control"}, "[15]": {"assay": "Plasma protein binding in mouse", "format": "ADME, cell-free", "conditions": "read-out: PPB (converted)"}, "[16]": {"assay": "Aqueous solubility of the compound", "format": "physicochemical", "conditions": "buffer"}, "[17]": {"target": "Aurora kinase B (Homo sapiens) (UniProt Q96GD4)", "sequence (Q96GD4 whole entry, the tested form may be a part)": "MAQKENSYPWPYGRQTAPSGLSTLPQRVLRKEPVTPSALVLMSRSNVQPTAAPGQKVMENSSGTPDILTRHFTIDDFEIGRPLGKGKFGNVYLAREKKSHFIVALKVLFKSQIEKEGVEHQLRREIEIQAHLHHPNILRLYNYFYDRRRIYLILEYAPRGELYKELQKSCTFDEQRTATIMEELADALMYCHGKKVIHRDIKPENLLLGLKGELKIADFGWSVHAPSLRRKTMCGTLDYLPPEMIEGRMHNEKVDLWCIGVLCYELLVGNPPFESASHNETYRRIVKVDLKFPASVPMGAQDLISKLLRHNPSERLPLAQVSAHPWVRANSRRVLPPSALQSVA", "assay": "Inhibition of wild-type human partial length AURKB (D25 to A303 residues) expressed in mammalian expression system assessed as residual activity at 10 uM by Kinomescan method relative to control"}}, "data": [{"compound": "CCc1cc(NC(=O)[C@H](O)c2cc(F)cc(F)c2)ccc1-c1cnc(N)c(C(=O)NC(C)C)c1", "values": [{"measurement": "Activity", "setting": "[1]", "result": 97, "unit": "%"}, {"measurement": "Activity", "setting": "[2]", "result": 60, "unit": "%"}, {"measurement": "half-life", "setting": "[3]", "result": 0.233, "unit": "h"}, {"measurement": "fraction unbound", "setting": "[4]", "result": 0.003}, {"measurement": "efflux ratio", "setting": "[5]", "result": 2.3}, {"measurement": "Cmax", "setting": "[6]", "result": 3350, "unit": "ng/mL"}, {"measurement": "half-life", "setting": "[7]", "result": 8.22, "unit": "h"}, {"measurement": "bioavailability", "setting": "[8]", "result": 70, "unit": "%"}, {"measurement": "half-life", "setting": "[9]", "result": 2, "unit": "h"}, {"measurement": "Activity", "setting": "[10]", "result": 100, "unit": "%"}, {"measurement": "Activity", "setting": "[11]", "result": 74, "unit": "%"}, {"measurement": "Activity", "setting": "[12]", "result": 100, "unit": "%"}, {"measurement": "half-life", "setting": "[13]", "result": 1.05, "unit": "h"}, {"measurement": "Activity", "setting": "[14]", "result": 70, "unit": "%"}, {"measurement": "fraction unbound", "setting": "[15]", "result": 0.006}, {"measurement": "solubility", "setting": "[16]", "result": 10, "unit": "µM"}, {"measurement": "Activity", "setting": "[17]", "result": 75, "unit": "%"}]}]}
